Measured values as given in patent US20200277246A1, “TREATMENT METHOD, COMPOUNDS, AND METHOD OF INCREASING TRPV2 ACTIVITY” (THE FEINSTEIN INSTITUTE FOR MEDICAL RESEARCH, priority 2015, published 2020).

Assays:
FLS = FLS invasion, focused library screen (Table 1); format: cell-based; conditions: evaluated over 24 hours in vitro
Procedure: The in vitro invasiveness of FLS was assayed in a transwell system using Matrigel-coated inserts (BD Biosciences, Franklin Lakes, N.J.), as previously described (Tolboom et al., “Invasiveness of Fibroblast-Like Synoviocytes is an Individual Patient Characteristic Associated with the Rate of Joint Destruction in Patients with Rheumatoid Arthritis,” Arthritis Rheum. 52 (7):1999-2002 (2005); Laragione et al., “The Arthritis Severity Locus Cia5d is a Novel Genetic Regulator of the Invasive Properties of Synovial Fibroblasts,” Arthritis Rheum. 58 (8):2296-2306 (2008), which are hereby incorporated by reference in their entirety). Briefly, 70-80% confluent cells were harvested by trypsin-EDTA digestion, and re-suspended at 2.0×10^4 cells in 500 μl of serum-free DMEM. Cells were placed in the upper compartment of the Matrigel-coated inserts. Where indicated, O1821, LER13, or vehicle was added to the upper chamber. The lower compartment was filled with complete media and the plates were incubated at 37° C. for 24 hours. After 24 hours the upper surface of the insert was wiped with cotton-swabs to remove non-invading cells and the Matrigel layer. The opposite side of the insert was stained with Crystal Violet (Sigma) and the total number of cells that invaded through Matrigel counted at 100× magnification. Experiments were done in duplicate.

Trpv2 = target: T1, Trpv2 (Rattus norvegicus, UniProt Q9WUD2); assay: Intracellular calcium influx (Fluo-4 NW) in DA FLS; format: cell-based; design: endogenous in cells; host or cells: fibroblast-like synoviocytes (FLS) from DA rats; conditions: measured over 200 seconds; compared with O1821
T1 sequence (Q9WUD2 1-761): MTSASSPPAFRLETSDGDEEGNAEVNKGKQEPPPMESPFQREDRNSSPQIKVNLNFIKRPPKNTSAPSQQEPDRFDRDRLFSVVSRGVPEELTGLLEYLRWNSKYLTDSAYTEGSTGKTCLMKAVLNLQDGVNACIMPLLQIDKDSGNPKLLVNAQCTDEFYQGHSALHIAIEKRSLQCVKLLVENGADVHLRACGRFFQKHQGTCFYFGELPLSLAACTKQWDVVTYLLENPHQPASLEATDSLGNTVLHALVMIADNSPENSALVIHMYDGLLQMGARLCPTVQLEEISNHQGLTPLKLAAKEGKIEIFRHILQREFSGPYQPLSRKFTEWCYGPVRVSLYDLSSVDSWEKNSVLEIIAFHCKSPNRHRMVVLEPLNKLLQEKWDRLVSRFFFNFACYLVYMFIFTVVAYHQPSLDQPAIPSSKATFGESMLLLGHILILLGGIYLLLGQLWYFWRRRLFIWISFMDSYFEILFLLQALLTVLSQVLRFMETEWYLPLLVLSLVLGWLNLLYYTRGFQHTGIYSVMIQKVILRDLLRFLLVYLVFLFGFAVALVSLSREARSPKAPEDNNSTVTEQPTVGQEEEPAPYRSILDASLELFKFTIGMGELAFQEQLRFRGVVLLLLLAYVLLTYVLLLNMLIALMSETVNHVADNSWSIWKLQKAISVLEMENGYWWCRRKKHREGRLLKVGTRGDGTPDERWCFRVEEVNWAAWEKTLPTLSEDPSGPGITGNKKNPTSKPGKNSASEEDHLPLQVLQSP
Procedure: Intracellular calcium influx was measured using the Fluo-4 NW calcium assay kit (Molecular Probes/Invitrogen) according to the manufacturer's instructions, as previously described (Laragione et al., “CXCL10 and its Receptor CXCR3 Regulate Synovial Fibroblast Invasion in Rheumatoid Arthritis,” Arthritis Rheum. 63 (11):3274-3283 (2011), which is hereby incorporated by reference in its entirety). Briefly, DA FLS were plated at a density of 4,500 cells/well in a 96-well plate (100 μl volume of complete media per well). After cell adhesion the media was changed to serum-free media for overnight culture. Serum-free media was then replaced with 50 μl of dye loading solution, followed by incubation at 37° C. for 30 minutes and a baseline fluorimetric reading. Then, O1821, LER13, or vehicle were added to their respective wells at different concentrations and fluorescence read immediately in a Fluoroskan Ascent Microplate Fluorometer (Thermo Scientific) with settings appropriate for excitation at 494 nm and emission at 516 nm.

[1] = tested on: C57BL/6 mice with KRN serum transfer-induced arthritis; assay: KRN serum transfer induced arthritis (clinical scores and histology); format: in vivo, mouse; conditions: KRN serum induced arthritis
Procedure: Seven to eight week-old C57BL/6 male mice (Jackson Laboratories) received 200 μl of KRN arthritogenic serum (Ji et al, “Genetic Influences on the End-Stage Effector Phase of Arthritis,” J. Exp. Med. 194 (3):321-330 (2001), which is hereby incorporated by reference in its entirety) (KBN TCR transgenic mice were a kind gift from Christophe Benoist and have been intercrossed with NOD at the Feinstein Institute to generate KRN mice and the arthritogenic serum) intraperitoneal (IP) on day zero (D0) and day 2 (D2). After the onset of clear ankle arthritis (day 3; D3), mice were started on O1821 10 mg/Kg IP BID or control vehicle (DMSO in saline solution). Arthritis severity was scored according to the system reported by Jirholt et al., “Genetic Linkage Analysis of Collagen-Induced Arthritis in the Mouse,” Eur. J. Immunol. 28 (10):3321-3328 (1998), which is hereby incorporated by reference in its entirety, which includes a number of involved joints and a degree of inflammation (swelling/redness) in a scale of 0-12 per mouse per day.
[…] Histology slides were scored without knowledge of treatment and according to a comprehensive scoring system previously reported that includes parameters for synovial hyperplasia, inflammatory cell infiltration, and bone and cartilage erosions (Brenner et al., “The Non-MHC Quantitative Trait Locus Cia10 Contains a Major Arthritis Gene and Regulates Disease Severity, Pannus Formation and Joint Damage,” Arthritis Rheum. 52 (1):322-332 (2005), which is hereby incorporated by reference in its entirety).

[2] = tested on: DBA1/J mice with collagen-induced arthritis; assay: Collagen induced arthritis (CIA); format: in vivo, mouse; conditions: for Arthritis severity (CIA): collagen-induced arthritis
From the text: CIA was induced in 8-week-old male DBA1/J mice (Jackson Laboratories) using a standard protocol (Courtenay et al., “Immunisation Against Heterologous Type II Collagen Induces Arthritis in Mice,” Nature 283 (5748):666-668 (1980); Nagler-Anderson et al., “Suppression of Type II Collagen-Induced Arthritis by Intragastric Administration of Soluble Type II Collagen,” Proc. Natl. Acad. Sci. U.S.A. 83 (19):7443-7446 (1986), which are hereby incorporated by reference in their entirety). Briefly, bovine type II collagen (Chondrex, Redmond, Wash.) was dissolved overnight in acetic acid 0.1 N and then homogenized at 1:1 with Complete Freund's Adjuvant (CFA, Difco, Detroit, Mich.). Anesthetized mice were injected intradermally with 100 μg of type II collagen emulsified in CFA in the tail. The new Trpv2 agonist LER13 (10 mg/Kg) or control vehicle (PBS 50%, PEG300 40%, PG 5%, PS80 5%) was started on day 10 (D10) and administered intra-peritoneally every-other-day (from D10 until day 55). On day 21 (D21), mice received a booster injection of 100 μg of type II collagen in incomplete Freund's adjuvant. Clinical signs of arthritis were evident on day 24 (D24).
Arthritis severity in CIA mice was scored using a modified scoring system based on Jirholt et al., “Genetic Linkage Analysis of Collagen-Induced Arthritis in the Mouse,” Eur. J. Immunol. 28 (10):3321-3328 (1998), which is hereby incorporated by reference in its entirety. Briefly, the modified scoring system ranged from 0-16 per mouse per day and included a functional component of disease severity (non-weight bearing) in the maximum score of 4 per paw. The arthritis severity index (ASI), which is the sum of all scores obtained during the observation period, was used to compare treatment groups as it provides a comprehensive assessment of arthritis severity over time, and correlates with histologic damage (Brenner et al., “The Non-MHC Quantitative Trait Locus Cia10 Contains a Major Arthritis Gene and Regulates Disease Severity, Pannus Formation and Joint Damage,” Arthritis Rheum. 52 (1):322-332 (2005); Brenner et al., “The Non-MHC Quantitative Trait Locus Cia5 Contains Three Major Arthritis Genes that Differentially Regulate Disease Severity, Pannus Formation, and Joint Damage in Collagen- and Pristane-Induced Arthritis,” J. Immunol. 174 (12):7894-7903 (2005), which are hereby incorporated by reference in their entirety).

Row | Compound | Calcium influx (Trpv2) | further results
1 | C=C(C)[C@@H]1CCC(C)=C[C@H]1c1c(O)cc(C)cc1O [Compound 1] | increased | FLS invasion decreased by (FLS): Decreased by 30%; Arthritis severity (KRN) [1]: Protective KRN
2 | C=C(C)[C@@H]1CCC(C)=C[C@H]1c1c(C)cc(O)cc1O [Compound 2] | increased (like DMSO, but less than O1821) | 
3 | C=C(C)[C@@H]1CCC(C)=C[C@H]1c1c(O)cc(/C=C/c2ccc(O)cc2)cc1O [Compound 7] | increased (50% less than O1821) | 
4 | C=C(C)[C@@H]1CCC(C)=CC1c1c(O)cc(F)cc1O (some centres unmarked) [Compound 9] | increased (similar to O1821) | 
5 | C=C(C)[C@H]1CCC(C)=CC1c1c(O)c(C2C=C(C)CC[C@H]2C(=C)C)c(O)c([C@@H]2C=C(C)CC[C@H]2C(=C)C)c1O (some centres unmarked) [Compound 3] | increased (20% greater than O1821) | 
6 | C=C(C)[C@@H]1CCC(C)=CC1c1c(O)cc(Cl)cc1O (some centres unmarked) [Compound 12] | increased (20% greater than O1821) | Arthritis severity (CIA) [2]: Not protective in CIA; FLS invasion decreased by (FLS): Decreased by 100%
7 | C=C(C)[C@H]1CCC(C)=CC1c1c(/C=C/c2ccc(O)cc2)cc(O)c([C@@H]2C=C(C)CC[C@H]2C(=C)C)c1O (some centres unmarked) [Compound 6] | increased (similar to O1821) | 
8 | (1R,2″R,2R,2″S)-6′-ethynyl-5,5″-dimethyl-2,2″-di(prop-1-en-2-yl)-1,1″,2,2″,3,3″,4,4″-octahydro-[1,1′:3′,1″-terphenyl]-2′,4′-diol [Compound 13] |  | Arthritis severity index (ASI), mean±S.D. ([2]; 10 mg/Kg IP every-other-day from D10, scoring to D76): 40.7±36.8
9 | C=C(C)[C@H]1CCC(C)=CC1c1c(O)cc(O)cc1/C=C/c1ccc(O)cc1 (some centres unmarked) [Compound 8] | increased (10% less than O1821) | 
10 | C=C(C)[C@@H]1CCC(C)=C[C@H]1c1c(O)cc(O)cc1O [Compound 5] | increased (25% less than O1821) | 
11 | C#Cc1cc(O)cc(O)c1C1C=C(C)CC[C@H]1C(=C)C (some centres unmarked) [Compound 14] | increased (20% greater than O1821) | FLS invasion decreased by (FLS): Decreased by 100%; Arthritis severity (KRN) [1]: Not protective in KRN
12 | C=C(C)[C@@H]1CCC(C)=CC1c1c(O)cc(O)cc1Cl (some centres unmarked) [Compound 11] | increased (20% greater than O1821) | 
13 | C=C(C)[C@H]1CCC(C)=CC1c1c(O)cc(O)c([C@@H]2C=C(C)CC[C@H]2C(=C)C)c1O (some centres unmarked) [Compound 4] | increased (25% less than O1821) | 
14 | C=C(C)[C@@H]1CCC(C)=CC1c1c(O)cc(O)cc1F (some centres unmarked) [Compound 10] | increased (20% greater than O1821) | Arthritis severity (CIA) [2]: Not protective KRN and CIA; FLS invasion decreased by (FLS): Decreased by 100%; Arthritis severity (KRN) [1]: Not protective KRN and CIA
